From patent US8242118B2, “Arylsulfonamide derivatives for use as CCR3 antagonists in the treatment of inflammatory and immunological disorders” (Axikin Pharmaceuticals Inc., priority 2001, dated 2012)
Structures can show the parent of a compound that is named as a salt.

Molecular target: T1, Human CCR3 (Homo sapiens, UniProt P51677)
T1 construct: The cloned CCR3 cDNA was constructed with pcDNA3 vector and transfected into a IC562 cell line; expressed in transfected cells
T1 sequence (P51677 1-355): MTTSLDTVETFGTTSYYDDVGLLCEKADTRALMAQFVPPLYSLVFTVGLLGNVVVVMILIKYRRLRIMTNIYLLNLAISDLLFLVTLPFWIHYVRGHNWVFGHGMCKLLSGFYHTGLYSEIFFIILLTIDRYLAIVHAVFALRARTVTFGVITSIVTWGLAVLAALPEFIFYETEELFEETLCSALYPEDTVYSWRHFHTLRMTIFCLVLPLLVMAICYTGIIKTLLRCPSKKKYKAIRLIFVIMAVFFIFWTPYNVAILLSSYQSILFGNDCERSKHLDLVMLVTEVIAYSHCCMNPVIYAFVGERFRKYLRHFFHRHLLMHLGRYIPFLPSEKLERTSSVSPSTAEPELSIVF
Assay: Calcium mobilization assay, eotaxin-stimulated
Assay type: cell-based
Settings: human CCR3-transformed K562 cells, 10 nM eotaxin; compounds of about 40 to 90% purity; read-out: Activity grade Ca2+ (IC50 class)
Procedure: • Human CCR3-transformed K562 cells were used. The cloned CCR3 cDNA was constructed with pcDNA3 vector and transfected into a IC562 cell line. The human CCR3-transformed K562 cells were maintained in RPMI-1640 (Cat.#22400-089, Life Technologies) supplemented with 10% FCS (Cat.#A-1115-L, Hyclone), 55 μM 2-mercaptoethanol (Cat.#21985-023, Life Technologies), 1 mM sodium pyruvate (Cat.#11360-070, Life Technologies), 100 units/ml of penicillin G and 100 μg/ml of streptomycin (Cat.#15140-122, Life Technologies), and 0.4 mg/ml of Geneticin (Cat.#10131-035, Life Technologies)(hereinafter called “culture medium”). Before the receptor binding assay, cells were pretreated with 5 mM sodium butyrate (Cat.#193-01522, Wako)-containing the culture medium (2×10^5 cells/ml) for 20-24 hours to increase the expression of CCR3. (2) Receptor Binding Assay (RBA) • Butyrate-pretreated cells, suspended in binding buffer (25 mM HEPES pH 7.6, 1 mM CaCl2, 5 mM MgCl2, 0.5% BSA, 0.1% NaN3) at a cell density of 2×10^6 cells/ml, were added into 60 μl/well in the 96-well round bottom polypropylene plate (Cat.#3365, Costar). Compounds, diluted with the binding buffer (4-times higher concentration of the final concentration), were added into 30 μl/well in the polypropylene plate. [^125I]-labeled human eotaxin (Cat.#IM290, Amersham Pharmacia Biotech), diluted with the binding buffer at the concentration of 0.4 nM (final concentration; 0.1 nM), was added into 30 μl/well in the polypropylene plate. Total 120 μl/well of binding reaction mixture (60 μl/well of cell suspension, 30 μl/well of compound solution, and 30 μl/well of [^125I]-labeled eotaxin) were incubated in the polypropylene plate for 1 hour at room temperature after the incubation, 100 μl/well of the reaction mixture was transferred to a filtration plate (Cat.#MAFB-N0B, Millipore), and washed with the washing buffer (25 mM HEPES pH 7.6, 1 mM CaCl2, 5 mM MgCl2, 0.5% BSA, 0.1% NaN3, 0.5 M NaCl) twice. The 96-well filtration plate was pretreated with 100 μl/well of 0.5% polyethylenimine (Cat.#P-3143, Sigma) for 2-4 hours at room temperature and washed with the washing buffer twice before use. The non-specific binding was determined by parallel incubation in the presence of 500 nM of non-labeled eotaxin (Cat.#23209, Genzyme Techne). The radioactivities remained on the filter were measured by liquid scintillation counter (TopCount™, Packard) after an addition of 45 μl/well of scintillant (Microscint20, Cat.#6013621, Packard). The inhibition percent at each concentration of compound was calculated, and IC50 values were determined from the inhibition curve. [Determination of IC50 Values of Compounds in Calcium Mobilization Assay] (IC50 Ca2+) (1) Cell • Human CCR3-transformed K562 cells were used. The human CCR3-transformed K562 cells were maintained in RPMI-1640 supplemented with 10% FCS, 55 μM 2-mercaptoethanol (Cat.#21985-023, Life Technologies), 1 mM sodium pyruvate, 100 units/ml of penicillin G and 100 μg/ml of streptomycin and 0.4 mg/ml of Geneticin. Before the calcium mobilization assay, cells were pretreated with 5 mM sodium butyrate-containing the culture medium (2×10^5 cells/ml) for 20-24 hours to increase the expression of CCR3. (2) Calcium Mobilization Assay • Butyrate-pretreated cells were loaded with Fluo-3AM (Cat.#F-1242, Molecular Probes) in loading buffer (Hanks' solution Cat.#05906 Nissui, 20 mM HEPES pH 7.6, 0.1% BSA, 1 mM probenecid Cat.#P-8761 Sigma, 1 μM Fluo-3AM, 0.01% pluronic F-127 Cat.#P-6866 Molecular Probes) at a cell density of 1×10^7 cells/ml. Then, cells were washed with calcium assay buffer (Hanks' solution Cat.#05906 Nissui, 20 mM HEPES pH 7.6, 0.1% BSA, 1 mM Probenecid Cat.#P-8761 Sigma). The cell suspension (3.3×10^6 cells/ml) was added into 60 μl/well in the 96-well clear bottom black plate (Cat.#3904, Costar). Compounds, diluted (5-times concentration of the final concentration) with the calcium assay buffer, were added into 20 μl/well in the plate 10 minutes before assay. […]

Row | SMILES | IC50 [µM]
1 | Cc1cccc(Oc2ccc([N+](=O)[O-])cc2S(=O)(=O)N2CCNCC2)c1 [Example 1-24] | < 1
2 | COC(=O)c1cncc(Oc2ccc([N+](=O)[O-])cc2S(=O)(=O)N2CCNCC2)c1 [Example 1-53] | 1 to 10
3 | NCCNS(=O)(=O)c1cc([N+](=O)[O-])ccc1Oc1cc(Cl)cc(Cl)c1 [Example 1-95] | < 1
4 | O=[N+]([O-])c1ccc(Oc2cc(Cl)cc(Cl)c2)c(S(=O)(=O)NCC2CCNCC2)c1 [Example 1-96] | < 1
5 | CN(C)CC(C)(C)CNS(=O)(=O)c1cc([N+](=O)[O-])ccc1Sc1cc(Cl)cc(Cl)c1 [Example 2-4] | < 1
6 | O=[N+]([O-])c1ccc(Sc2ccccc2)c(S(=O)(=O)N2CCNCC2)c1 [Example 2-14] | 1 to 10
7 | O=[N+]([O-])c1ccc(Nc2cccc(Cl)c2)c(S(=O)(=O)N2CCNCC2)c1 [Example 3-7] | < 1
8 | O=[N+]([O-])c1ccc(Nc2ccc(Cl)cc2)c(S(=O)(=O)N2CCNCC2)c1 [Example 3-8] | < 1
9 | O=[N+]([O-])c1ccc(Nc2ccccc2F)c(S(=O)(=O)N2CCNCC2)c1 [Example 3-9] | < 1
10 | O=[N+]([O-])c1ccc(Nc2cccc(F)c2)c(S(=O)(=O)N2CCNCC2)c1 [Example 3-10] | < 1
11 | O=[N+]([O-])c1ccc(Nc2ccc(F)cc2)c(S(=O)(=O)N2CCNCC2)c1 [Example 3-11] | < 1
12 | COc1ccccc1Nc1ccc([N+](=O)[O-])cc1S(=O)(=O)N1CCNCC1 [Example 3-12] | < 1

Other lines, results leading:

Row | IC50 [µM] | SMILES
13 | < 1 | CN(C)CCCCNS(=O)(=O)c1cc([N+](=O)[O-])ccc1Oc1cc(Cl)cc(Cl)c1 [Example 4-39]
14 | < 1 | CC1CCCCN1CCCNS(=O)(=O)c1cc([N+](=O)[O-])ccc1Oc1cc(Cl)cc(Cl)c1 (stereo not shown) [Example 4-40]
15 | < 1 | O=[N+]([O-])c1ccc(Oc2cc(Cl)cc(Cl)c2)c(S(=O)(=O)NCCN2CCCCC2)c1 [Example 4-41]
16 | 1 to 10 | Cc1cc(C)cc(Oc2cc(Cl)c(C#N)cc2S(=O)(=O)N2CCNCC2)c1 [Example 12-2]
17 | 1 to 10 | N#Cc1cc(S(=O)(=O)N2CCNCC2)c(Oc2cc(Cl)cc(Cl)c2)cc1Cl [Example 12-3]
18 | < 1 | N#Cc1ccc(Oc2cc(Cl)cc(Cl)c2)c(S(=O)(=O)N2CC[C@H](N)C2)c1 [Example 13-1, 1-{5-cyano-2-(3,5-dichlorophenoxy)phenylsulfonyl}-(3S)-aminopyrrolidine hydrochloride]
19 | < 1 | N#Cc1ccc(Oc2cc(Cl)cc(Cl)c2)c(S(=O)(=O)NCCN)c1 [Example 13-8]
20 | < 1 | Cc1cc(C)cc(Oc2ccc(C(=O)O)cc2S(=O)(=O)N2CCNCC2)c1 [Example 14-1, 4-(3,5-dimethylphenoxy)-3-(1-piperazinylsulfonyl)benzoic acid hydrochloride]
21 | < 1 | O=C(O)c1ccc(Oc2cc(Cl)cc(Cl)c2)c(S(=O)(=O)N2CCNCC2)c1 [Example 14-3]
22 | 1 to 10 | O=C(O)c1cc(S(=O)(=O)N2CCNCC2)c(Oc2cc(Cl)cc(Cl)c2)cc1Cl [Example 14-4]
23 | < 1 | Cc1cc(C)cc(Oc2ccc(C(N)=O)cc2S(=O)(=O)N2CCNCC2)c1 [Example 15-1, 4-(3,5-dimethylphenoxy)-3-(1-piperazinylsulfonyl)benzamide hydrochloride]
24 | < 1 | COC(=O)c1ccc(Oc2cc(C)cc(C)c2)c(S(=O)(=O)N2CCNCC2)c1 [Example 15-2, methyl 4-(3,5-dimethylphenoxy)-3-(1-piperazinylsulfonyl)benzoate hydrochloride]
25 | 1 to 10 | Cc1cc(C)cc(Oc2cc(Cl)c(C(N)=O)cc2S(=O)(=O)N2CCNCC2)c1 [Example 15-3]
26 | 1 to 10 | NC(=O)c1cc(F)c(Oc2cc(Cl)cc(Cl)c2)c(S(=O)(=O)N2CCNCC2)c1 [Example 15-4]
27 | < 1 | Cc1cc(C)cc(Oc2ccc(CO)cc2S(=O)(=O)N2CCNCC2)c1 [Example 16-1, [4-(3,5-dimethylphenoxy)-3-(1-piperazinylsulfonyl)phenyl]methanol hydrochloride]
28 | 1 to 10 | N#Cc1ccc([S+]([O-])c2cc(Cl)cc(Cl)c2)c(S(=O)(=O)N2CCNCC2)c1 (stereo not shown) [Example 19-1, 4-[(3,5-dichlorophenyl)sulfinyl]-3-(1-piperazinylsulfonyl)benzonitrile hydrochloride]
29 | 1 to 10 | CN(c1cc(Cl)cc(Cl)c1)c1ccc(C#N)cc1S(=O)(=O)N1CCNCC1 [Example 21-1, 4-[(3,5-dichlorophenyl)(methyl)amino]-3-(1-piperazinylsulfonyl)benzonitrile hydrochloride]
30 | < 1 | Cc1cc(C)cc(N(C)c2ccc([N+](=O)[O-])cc2S(=O)(=O)N2CCNCC2)c1 [Example 21-2]
31 | < 1 | Cc1cc(C)cc(Oc2ccc(C(=O)NCCC#N)cc2S(=O)(=O)N2CCNCC2)c1 [Example 22-1, N-(2-cyanoethyl)-4-(3,5-dimethylphenoxy)-3-(1-piperazinylsulfonyl)benzamide hydrochloride]
32 | < 1 | Cc1cc(C)cc(Oc2ccc(C(=O)NCCC(N)=O)cc2S(=O)(=O)N2CCNCC2)c1 [Example 22-2, N-[4-(3,5-dimethylphenoxy)-3-(1-piperazinylsulfonyl)benzoyl]-beta-alanineamide hydrochloride]
33 | < 1 | Cc1cc(C)cc(Oc2ccc(-c3nnnn3CCC#N)cc2S(=O)(=O)N2CCNCC2)c1 [Example 22-3, 3-{5-[4-(3,5-dimethylphenoxy)-3-(1-piperazinylsulfonyl)phenyl]-1H-tetraazol-1-yl}propanenitrile hydrochloride]
34 | < 1 | Cc1cc(C)cc(Oc2ccc(-c3nnn[nH]3)cc2S(=O)(=O)N2CCNCC2)c1 [Example 22-4, 1-{[2-(3,5-dimethylphenoxy)-5-(1H-tetraazol-5-yl)phenyl]sulfonyl}piperazine hydrochloride]
35 | < 1 | Cc1cc(C)cc(Oc2cc([N+](=O)[O-])ccc2S(=O)(=O)N2CCNCC2)c1 [Example 23-1, 1-{2-(3,5-dimethylphenoxy)-4-nitrophenylsulfonyl}piperazine hydrochloride]
36 | < 1 | Cc1cc(C)cc(Oc2cc(Br)cc(S(=O)(=O)N3CCNCC3)c2)c1 [Example 24-1, 1-{[3-bromo-5-(3,5-dimethylphenoxy)phenyl]sulfonyl}piperazine hydrochloride]

System: not given
Assay: not given
Settings: not given

Row | melting point [°C] | SMILES
37 | 214 to 220 | Cc1cc(C)cc(Oc2ccc(S(=O)(=O)N3CCNCC3)cc2S(=O)(=O)N2CCNCC2)c1.Cl.Cl
